Measurements published in patent US7067619B2, “Integrin-binding peptides” (La Jolla Cancer Research Foundation, priority 1993, dated 2006).
Bridge positions count the residues as written; N and C are the ends. Ends that are not written are not given here. Peptide text beside a SMILES is read from it.

Columns and labels:
αvβ3 integrin [1] = target: T1, αvβ3 integrin (Homo sapiens, UniProt P05106+P06756); experiment: Inhibition of peptide-displaying phage binding to αvβ3 integrin by synthetic peptides; set-up: The αvβ3, αvβ5 and α5β1 integrins were isolated from human placental extracts; from tissue; host or cells: human placenta
T1 sequence (P06756 31-889 limits assumed): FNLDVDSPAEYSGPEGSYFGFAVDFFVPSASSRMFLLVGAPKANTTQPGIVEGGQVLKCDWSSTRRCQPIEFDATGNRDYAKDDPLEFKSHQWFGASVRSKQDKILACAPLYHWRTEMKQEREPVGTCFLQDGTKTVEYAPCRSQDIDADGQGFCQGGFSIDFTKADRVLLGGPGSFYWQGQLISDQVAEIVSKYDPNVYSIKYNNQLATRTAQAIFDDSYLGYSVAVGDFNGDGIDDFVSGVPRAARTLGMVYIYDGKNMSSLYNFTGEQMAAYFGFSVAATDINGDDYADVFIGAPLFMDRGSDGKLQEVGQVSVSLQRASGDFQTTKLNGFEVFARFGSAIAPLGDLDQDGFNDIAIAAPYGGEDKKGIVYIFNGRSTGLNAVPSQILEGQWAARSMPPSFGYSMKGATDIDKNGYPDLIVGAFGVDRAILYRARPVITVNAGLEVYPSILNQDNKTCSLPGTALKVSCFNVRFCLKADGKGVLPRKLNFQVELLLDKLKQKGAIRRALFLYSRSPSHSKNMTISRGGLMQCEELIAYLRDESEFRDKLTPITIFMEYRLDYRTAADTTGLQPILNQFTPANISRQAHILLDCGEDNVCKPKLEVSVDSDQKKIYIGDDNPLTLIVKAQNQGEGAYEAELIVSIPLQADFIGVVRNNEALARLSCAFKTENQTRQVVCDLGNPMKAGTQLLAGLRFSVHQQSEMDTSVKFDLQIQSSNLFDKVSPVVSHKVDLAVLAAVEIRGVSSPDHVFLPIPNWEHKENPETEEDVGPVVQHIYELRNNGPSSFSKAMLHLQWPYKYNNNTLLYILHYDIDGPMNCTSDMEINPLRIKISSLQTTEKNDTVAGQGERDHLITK
T1 sequence (P06756 891-1048 partner limits assumed): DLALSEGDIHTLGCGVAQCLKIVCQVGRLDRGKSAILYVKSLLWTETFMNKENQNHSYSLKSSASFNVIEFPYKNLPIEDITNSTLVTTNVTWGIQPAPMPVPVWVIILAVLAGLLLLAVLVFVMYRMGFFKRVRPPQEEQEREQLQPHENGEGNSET
T1 sequence (P05106 27-788): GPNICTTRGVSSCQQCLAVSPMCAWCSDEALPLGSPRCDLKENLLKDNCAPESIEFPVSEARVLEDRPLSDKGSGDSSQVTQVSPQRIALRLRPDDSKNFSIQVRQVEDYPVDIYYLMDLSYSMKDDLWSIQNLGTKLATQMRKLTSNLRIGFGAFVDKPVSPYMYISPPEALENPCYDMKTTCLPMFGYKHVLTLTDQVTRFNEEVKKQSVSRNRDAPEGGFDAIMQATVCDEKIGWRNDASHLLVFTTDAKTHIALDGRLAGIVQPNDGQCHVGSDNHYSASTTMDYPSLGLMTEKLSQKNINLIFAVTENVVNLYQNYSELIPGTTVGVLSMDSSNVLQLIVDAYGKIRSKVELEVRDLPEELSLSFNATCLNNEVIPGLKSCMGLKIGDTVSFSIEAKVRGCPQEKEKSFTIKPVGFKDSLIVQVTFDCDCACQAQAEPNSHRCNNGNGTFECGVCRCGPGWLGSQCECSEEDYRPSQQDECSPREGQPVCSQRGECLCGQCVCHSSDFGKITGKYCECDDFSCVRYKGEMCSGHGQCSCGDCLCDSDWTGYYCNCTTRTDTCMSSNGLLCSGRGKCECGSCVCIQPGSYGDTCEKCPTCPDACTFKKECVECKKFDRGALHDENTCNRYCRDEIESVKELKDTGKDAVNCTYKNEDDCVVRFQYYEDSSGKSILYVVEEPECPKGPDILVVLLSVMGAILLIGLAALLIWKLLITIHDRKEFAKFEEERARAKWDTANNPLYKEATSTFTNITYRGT
Excerpt: In addition, most of the phage-binding activity in the αvβ3 preparation was captured into microliter wells coated with antibodies against the αv or β3 subunits as described previously (Koivunen et al., J. Biol. Chem., 268:20205–10 (1993). The αIIbβ3 integrin was isolated from outdated platelets (Pytela et al., Science, 231:1559–1562 (1986)).
Binding of individual cloned phage to integrins was studied in microliter wells as described in Koivunen et al., J. Cell. Biol., 124:373–380 (1994). Phage binding to α5β1 and αvβ3 were assayed in TBS buffer containing 1% BSA and 1 mM MnCl2 and binding to αvβ5 in the presence of 1 mM CaCl2. Phage that were bound were determined by their ability to infect F-pilus positive K91kan bacteria. Bacteria were grown overnight in microliter wells in the presence of tetracycline and the absorbance indicative of bacterial growth was read at 600 nm with an ELISA plate reader.
The ability of […] [SEQ ID NO:12] and CRGDC [SEQ ID NO:37] containing peptides to inhibit binding of CRGDCL-displaying [SEQ ID NO:7] phage to the microwells coated with αvβ3 integrin also was examined. CRGDCL-displaying [SEQ ID NO:7] phage were added to a well and either cyclic […] [SEQ ID NO:6] or cyclic […] [SEQ ID NO:5] was added to compete for binding. Binding was quantitated as described above.

αvβ3 integrin [2] = target: T1, αvβ3 integrin; experiment: Inhibition of αvβ3-mediated attachment of IMR-90 cells to vitronectin; format: cell-based; set-up: endogenous in cells; host or cells: IMR-90 cells
Method: FIG. 13—[…] attachment of IMR-90 cells to vitronectin. The cells that bound were determined as described herein.
Cell lines expressing different integrins were used to examine peptide inhibition of integrin function. A human melanoma cell line, C8161, a fibroblast cell line, WI-38, and an osteosarcoma cell line, MG-63 (described by Seftor et al., Canc. Res., 53:3411–3415 (1993); Vogel et al., J. Biol. Chem., 265:5934–5937 (1990); and Pytela et al. (1985), supra, respectively, each of which is incorporated herein by reference) attach to fibronectin through α5β1 integrin, as does B2/α27, a CHO cell line transfected with human α5. B2/C1, the control parental CHO line (Bauer et al., J. Cell. Biol. 116:477–487 (1992), which is incorporated herein by reference), attaches via […]. CHO cells C11 and NIH 3T3 cells express the endogenous Chinese hamster and mouse α5β1 integrins, respectively. The human melanoma cells, A375-M, attach to fibronectin through both α5β1 and α4β1 integrins (Mould et al., J. Biol. Chem. 265:4020–4024 (1990), which is incorporated herein by reference). […]
Cell lines expressing fibronectin-binding integrins were used to determine peptide activities against these integrins in the cell attachment assay described by Ruoslahti et al., Meth. […] Bound cells were quantitated by staining with 0.1% amido black.

αvβ5 integrin = αvβ5 integrin (Homo sapiens, UniProt P06756+P18084); experiment: Inhibition of αvβ5-mediated cell attachment to vitronectin; format: cell-based; set-up: αvβ5-mediated attachment of HT-29 cells to vitronectin; endogenous in cells; host or cells: HT-29 cells; UCLA-P3 cells
Chain of αvβ5 integrin (P06756 31-889 limits assumed): as the sequence (P06756 31-889 limits assumed) above
Chain of αvβ5 integrin (P06756 891-1048 partner limits assumed): as the sequence (P06756 891-1048 partner limits assumed) above
Chain of αvβ5 integrin (P18084 24-799): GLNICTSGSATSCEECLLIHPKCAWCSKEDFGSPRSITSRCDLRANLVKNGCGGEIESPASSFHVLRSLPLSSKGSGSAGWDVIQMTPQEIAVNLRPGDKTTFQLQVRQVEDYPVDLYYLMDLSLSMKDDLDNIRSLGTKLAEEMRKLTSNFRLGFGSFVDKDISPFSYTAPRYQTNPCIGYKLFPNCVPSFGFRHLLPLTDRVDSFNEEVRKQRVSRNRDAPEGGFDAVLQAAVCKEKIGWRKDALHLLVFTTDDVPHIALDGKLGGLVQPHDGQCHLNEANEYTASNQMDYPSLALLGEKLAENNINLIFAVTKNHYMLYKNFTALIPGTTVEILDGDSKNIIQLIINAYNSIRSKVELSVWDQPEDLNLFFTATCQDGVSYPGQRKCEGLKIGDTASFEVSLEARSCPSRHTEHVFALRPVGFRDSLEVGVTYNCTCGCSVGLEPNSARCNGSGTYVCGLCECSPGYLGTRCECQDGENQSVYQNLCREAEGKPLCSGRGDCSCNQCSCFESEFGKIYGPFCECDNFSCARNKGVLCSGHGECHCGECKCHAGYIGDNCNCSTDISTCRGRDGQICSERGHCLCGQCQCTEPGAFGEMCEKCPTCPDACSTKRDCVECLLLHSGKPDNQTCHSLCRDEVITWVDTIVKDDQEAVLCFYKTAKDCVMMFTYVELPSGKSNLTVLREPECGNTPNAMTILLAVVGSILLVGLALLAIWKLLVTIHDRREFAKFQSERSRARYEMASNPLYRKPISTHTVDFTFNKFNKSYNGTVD
Excerpt: FIG. 12—αvβ5-mediated attachment of HT-29 cells to vitronectin.
Cell lines expressing different integrins were used to examine peptide inhibition of integrin function. A human melanoma cell line, C8161, a fibroblast cell line, WI-38, and an osteosarcoma cell line, MG-63 (described by Seftor et al., Canc. Res., 53:3411–3415 (1993); Vogel et al., J. Biol. Chem., 265:5934–5937 (1990); and Pytela et al. (1985), supra, respectively, each of which is incorporated herein by reference) attach to fibronectin through α5β1 integrin, as does B2/α27, a CHO cell line transfected with human α5. B2/C1, the control parental CHO line (Bauer et al., J. Cell. Biol. 116:477–487 (1992), which is incorporated herein by reference), attaches via […]. CHO cells C11 and NIH 3T3 cells express the endogenous Chinese hamster and mouse α5β1 integrins, respectively. The human melanoma cells, A375-M, attach to fibronectin through both α5β1 and α4β1 integrins (Mould et al., J. Biol. Chem. 265:4020–4024 (1990), which is incorporated herein by reference). CHO cell line B2/v7 express the αvβ1 integrin (Zhang et al., J. Cell. Biol. 122:235–242 (1993), which is incorporated herein by reference). The vitronectin-binding integrins […] and αvβ3 were assayed using the cell line HT-29 and IMR-90, respectively (Koivunen et al., J. Biol. Chem. 268: 20205–20210 (1993)).
Cell lines expressing fibronectin-binding integrins were used to determine peptide activities against these integrins in the cell attachment assay described by Ruoslahti et al., Meth. Enzymol., 144:803–831 (1982), which is incorporated herein by reference. Human plasma fibronectin was iodinated as described by Morla and Ruoslahti, J. Cell Biol., 118:421–429 (1992), which is incorporated herein by reference. Vitronectin was obtained from Telios Pharmaceuticals (San Diego, Calif.). […] Peptide was coated on plastic by incubating at 37° C. for 2 hours in phosphate buffered saline containing 0.25% glutaraldehyde to crosslink the peptide. Free binding sites on the plastic were blocked using BSA. Approximately 1×10^5 cells per well were allowed to attach for 1 hour in the presence or absence of competing peptides. Bound cells were quantitated by staining with 0.1% amido black.
Inhibition of cell attachment mediated by either fibronectin- or vitronectin-binding integrins was performed to determine peptide specificity in a biologically relevant system. The assays and cell lines were performed as described above. FIGS. 5 and 6 show the results of cell attachment mediated by the fibronectin binding integrins α5β1 and αvβ1.

With `C[C@H](N)C(=O)N[C@H]1CSSC[C@@H](C(=O)NCC(=O)O)NC(=O)[C@H](Cc2ccccc2)NC(=O)[C@@H]2CSSC[C@H](NC(=O)[C@H](CC(=O)O)NC1=O)C(=O)N[C@@H](CCCNC(=N)N)C(=O)NCC(=O)N[C@@H](CC(=O)O)C(=O)N2` (H-ACDCRGDCFCG-OH; disulfide 2-10, 4-8) the “inhibition of phage binding to αvβ3 relative to *CRGDC*” value (αvβ3 integrin [1]; better than *CRGDC*) was 5 fold, the “effectiveness relative to *CRGDC* in IMR-90 attachment to vitronectin” value (αvβ3 integrin [2]; more effective than *CRGDC*) was 20 fold and the “affinity relative to *CRGDC* in HT-29 attachment to vitronectin” value (αvβ5 integrin; HT-29 cells, higher than *CRGDC*) was 40 fold. The “affinity relative to A*CRGDGWC*G in HT-29 attachment to vitronectin” value (αvβ5 integrin; HT-29 cells, higher than A*CRGDGWC*G) was 40 fold and the “enhancement in activity relative to *CRGDC* in UCLA-P3 cells” value (αvβ5 integrin; UCLA-P3 cells) was 20 fold.
With “A*CPSRLDSPC*G (ACPSRLDSPCG; disulfide 2-10 (inferred))” the “affinity for αvβ3” value (αvβ3 integrin [1]; phage binding experiments) was “low”, the “selectivity towards the αvβ3 integrin” value (αvβ3 integrin [1]; phage binding experiments) was “partial selectivity” and the “concentration at which inhibitory activity was shown” value (αvβ3 integrin [2]; vitronectin) was “higher than 1 mM”.
For GACRRETAWACGA, the “inhibition of binding of CRGDCL-displaying phage to integrin-coated wells” value (αvβ3 integrin [1]; CRGDCL-displaying phage, αvβ3-coated wells, FIG. 3 (result sentence prints α5β1)) was “ineffective” and the “activity against cell attachment to vitronectin” value (αvβ5 integrin; all concentrations tested, FIG. 7 (sentence prints αvβ1)) was “essentially devoid of activity”.
